Source: PMC12527173, “Cytotoxic, anti-inflammatory, antioxidant, and anti-glyoxalase-I evaluation of chelating substances: In silico and in vitro study” (PLOS One, 2025)
Like-named read-outs stand apart in the source and are kept apart here. Values belong to the molecule of their own block, whether it stands above or below them.

Key:
[1] = target: T1, human recombinant Glo-I enzyme (rhGlo-I) (Homo sapiens, UniProt Q04760); assay: Glyoxalase-I (Glo-I) enzyme inhibition assay; type: biochemical; conditions: for activity against Glo-I (in words): in vitro, compounds classed as inactive
T1 construct: N-terminal Met and 6-His tag (N); purchased R&D Systems; host or cells: E. coli
T1 sequence (Q04760 2-184 limits assumed): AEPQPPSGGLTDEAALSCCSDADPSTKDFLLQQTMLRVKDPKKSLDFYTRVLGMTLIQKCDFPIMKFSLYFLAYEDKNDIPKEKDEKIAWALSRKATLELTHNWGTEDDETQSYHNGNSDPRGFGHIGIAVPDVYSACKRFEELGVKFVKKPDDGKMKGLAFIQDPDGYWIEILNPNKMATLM
Protocol: Solvents and chemicals were procured from Sigma-Aldrich Co. and Acros (ThermoFisher Scientific, New Jersey, USA). […] The enzyme was obtained from R&D Systems® Corporation in the USA. Synthetic compounds were tested for their inhibitory effects on the enzyme using a 10 mM DMSO stock concentration in triplicates. The manufacturer’s protocol from R & D Systems, Inc. in Minneapolis, MN, USA was followed for the in vitro experiments. The reconstituted Glo-I enzyme (0.5 mg/mL) was thawed after being stored at −70°C in sterile deionized water. […] The monitoring was done at a wavelength of 240 nm for 200 seconds at 37°C. The substrate mixture was freshly concocted with a concentration of 100 mM glutathione and 100 mM methylglyoxal (MG) in assay buffer containing 0.5 M sodium phosphate dibasic/monobasic. It was then left undisturbed at room temperature for 15 minutes […]. The selected compounds for investigation are subsequently produced in testing concentration ranges using a 0.1 M solution of sodium phosphate dibasic/monobasic with a pH range of 7–7.2. The blank contained an assay buffer with MG substrate. The test compounds were combined with human recombinant Glo-I (50 µM) in a 96-well plate to determine their kinetic behavior.

[2] = test system: HeLa uterine cervix adenocarcinoma cell line; assay: SRB cytotoxicity assay, HeLa; type: cell-based; conditions: Homo sapiens, 72 h incubation, n = 12, read-out: Cytotoxicity (as of %Control) IC50 value Hela cervix malignancy
Protocol: (§1) The cancer cell lines were cultured in DMEM supplemented with 10% FBS (Bio Whittaker, Verviers, Belgium), HEPES Buffer (10 mM), gentamicin (50 µg/mL), L-glutamine (100 μg/mL), streptomycin ([…]), penicillin (100 µg/mL), and 4-(2-hydroxyethyl)-1-piperazineethanesulfonic acid (HEPES) Buffer (Sigma, St. Luis, MO, USA). The Sulforhodamine B used was obtained from Santa Cruz Biotechnology, Inc. in Texas, USA. […] Periodontal ligament fibroblasts (PDL) were utilized to assess specific cytotoxicity. Cancer cell lines that have survived offer several benefits. They provide a consistent and uninterrupted source of cells, so bypassing any ethical concerns related to the use of human tissue. Additionally, they are cost-effective. The cytotoxicity levels were assessed using the Sulforhodamine B (SRB) colorimetric assay, provided by Santa Cruz Biotechnology, Inc. in Texas, USA. The Spectro Scan 80D UV-VIS spectrophotometer, manufactured by Sedico Ltd. in Nicosia, Cyprus, was employed for this cytotoxicity screening. The cells were co-incubated with substances or a reference agent at various doses ranging from 5 to 200 μg/mL. […] The reduction in cell viability was analyzed by plotting Dose-response curves and expressing the data as a percentage of the control optical density. The IC50 values were obtained using regression analysis.

[3] = test system: Breast cancer cell line MCF7; assay: SRB cytotoxicity assay, MCF7; type: cell-based; conditions: Homo sapiens, 72 h incubation, n = 12, read-out: Cytotoxicity (as of %Control) IC50 value MCF7 mammary malignancy
Protocol: as §1

[4] = test system: T47D breast cancer cell line; assay: SRB cytotoxicity assay, T47D; type: cell-based; conditions: Homo sapiens, 72 h incubation, n = 12, read-out: Cytotoxicity (as of %Control) IC50 value T47D mammary malignancy
Protocol: as §1

[5] = SRB cytotoxicity assay, normal PDL fibroblasts; type: cell-based; conditions: normal periodontal ligament (PDL) fibroblasts, 72 h incubation, 0.1–200 µM range, read-out: Cytotoxicity (as of %Control) IC50 value PDL fibroblasts
Protocol: as §1

[6] = test system: A375 human skin cancer cell line; assay: SRB cytotoxicity assay, A375; type: cell-based; conditions: A-375, 72 h incubation, n = 12, read-out: Cytotoxicity (as of %Control) IC50 value A375 skin melanoma
Protocol: as §1

[7] = test system: HCT116 colorectal cancer cell line; assay: SRB cytotoxicity assay, HCT116; type: cell-based; conditions: Homo sapiens, HCT-116, 72 h incubation, n = 12, read-out: Cytotoxicity (as of %Control) IC50 value HCT116
Protocol: as §1

[8] = test system: PANC1 pancreatic cell line; assay: SRB cytotoxicity assay, PANC1; type: cell-based; conditions: Homo sapiens, PANC-1, 72 h incubation, n = 12, read-out: Cytotoxicity (as of %Control) IC50 value PANC1
Protocol: as §1

[9] = test system: Human PC3 prostate cancer cell line; assay: SRB cytotoxicity assay, PC3; type: cell-based; conditions: 72 h incubation, n = 12, read-out: Cytotoxicity (as of %Control) IC50 value PC3 prostate malignancy
Protocol: as §1

[10] = test system: CACO2 colorectal cancer cell line; assay: SRB cytotoxicity assay, CACO2; type: cell-based; conditions: Homo sapiens, Caco-2, 72 h incubation, n = 12, read-out: Cytotoxicity (as of %Control) IC50 value CACO2
Protocol: as §1

[11] = test system: HT-29 colorectal cancer cell line; assay: SRB cytotoxicity assay, HT29; type: cell-based; conditions: Homo sapiens, 72 h incubation, n = 12, read-out: Cytotoxicity (as of %Control) IC50 value HT29
Protocol: as §1

[12] = test system: SW480 colorectal cancer cell line; assay: SRB cytotoxicity assay, SW480; type: cell-based; conditions: Homo sapiens, 72 h incubation, n = 12, read-out: Cytotoxicity (as of %Control) IC50 value SW480
Protocol: as §1

[13] = test system: SW620 colorectal cancer cell line; assay: SRB cytotoxicity assay, SW620; type: cell-based; conditions: Homo sapiens, SW-620, 72 h incubation, n = 12, read-out: Cytotoxicity (as of %Control) IC50 value SW620
Protocol: as §1

[14] = test system: A549 lung cancer cell line; assay: SRB cytotoxicity assay, A549; type: cell-based; conditions: Homo sapiens, 72 h incubation, n = 12, read-out: Cytotoxicity (as of %Control) IC50 value A549 lung malignancy
Protocol: as §1

[15] = test system: LPS-primed RAW 264.7 murine macrophages (nitrite / iNOS); assay: Anti-inflammatory (nitrite) determination in LPS-primed macrophages; type: cell-based; conditions: Mus musculus, RAW264.7; LPS-primed RAW 264.7; nitrite by Griess; 24 h; n = 12; read-out: iNOS- IC50 value
Protocol: The RAW 264.7 mouse macrophage cell line (ATCC® TIB-71) was cultivated in high glucose DMEM with 10% foetal bovine serum (FBS), 100 U/mL penicillin, 100 μg/mL streptomycin, and 100 μg/mL L-glutamate. The cells were incubated at 37°C in a humidified environment with 95% air and 5% CO2. Confluent macrophages (2 x 10^5/well) were cultured with lipopolysaccharide (LPS; 20 μg/mL; Sigma, St. Luis, MO, USA) and indomethacin (25–200 μg/mL) as the positive control, along with various concentrations (5–200 μg/mL) of treatment compounds. The cells were incubated for 24 hours. 100 μL of Griess reagent were combined with 100 μL portions of cell culture medium and left to incubate at room temperature for 10 minutes. The absorbance at a wavelength of 550 nm was measured using a microplate reader, namely the Spectro Scan 80D UV-VIS spectrophotometer manufactured by Sedico Ltd. in Nicosia, Cyprus. The nitrite concentration was assessed by comparing it to a standard curve of sodium nitrite. A cytotoxicity protocol using SRB was conducted to assess the impact of the test substances under study on RAW 264.7 viability.

[16] = read-out: Trial one (%inhibtion)
[17] = read-out: Trial three (%inhibtion)
[18] = read-out: Trial two (%inhibtion)

activity against Glo-I (in words) [1]: inactive
Structure (SMILES): O=C(/C=C/c1ccc(O)c(O)c1)O[C@@H]1[C@H](O)C[C@@](O)(C(=O)O)C[C@H]1OC(=O)/C=C/c1ccc(O)c(O)c1 [3,4-diaffeoylquinic acid]

activity against Glo-I (in words) [1]: inactive
Structure (SMILES): Oc1cc(O)c2c(c1)O[C@H](c1ccc(O)c(O)c1)[C@@H](O)C2 [(+)Catechin]

activity against Glo-I (in words) [1]: inactive
Structure (SMILES): Oc1cc(O)c2c(c1)O[C@H](c1ccc(O)c(O)c1)[C@H](O)C2 [(-)Epicatechin]

activity against Glo-I (in words) [1]: ineffective
Structure (SMILES): NC(CO)C(=O)NNCc1ccc(O)c(O)c1O (stereo not shown) [Benserazide, reference compound]

inhibition at 3.125 µM [1, 16]: 15.4% | inhibition at 3.125 µM [1, 17]: 6.7% | inhibition at 3.125 µM [1, 18]: 7.9% | inhibition at 6.25 µM [1, 16]: 14.4% | inhibition at 6.25 µM [1, 17]: 9.01% | inhibition at 6.25 µM [1, 18]: 9.06% | inhibition at 12.5 µM [1, 16]: 25.3% | inhibition at 12.5 µM [1, 17]: 20.9% | inhibition at 12.5 µM [1, 18]: 12% | inhibition at 25 µM [1, 16]: 35.3% | inhibition at 25 µM [1, 17]: 29.6% | inhibition at 25 µM [1, 18]: 27.5% | inhibition at 50 µM [1, 16]: 55.6% | inhibition at 50 µM [1, 17]: 56% | inhibition at 50 µM [1, 18]: 53.5% | Maximum (descriptive statistics of enzyme inhibition) ([1]; highest mean inhibition over the tested concentrations, in % (unit assumed)): 55.00 | IC50 ([1]; human recombinant Glo-I, triplicates, read-out: IC50 µM ± SD): 44.3 ± 18.6 µM | Minimum (descriptive statistics of enzyme inhibition) ([1]; lowest mean inhibition over the tested concentrations, in % (unit assumed)): 10.00
Structure (SMILES): O=C(/C=C/c1ccc(O)c(O)c1)O[C@H]1[C@H](O)[C@@H](O)[C@H](OCCc2ccc(O)c(O)c2)O[C@@H]1CO [Calceolarioside A]
IC50 [2]: 208000 ± 34800 nM | IC50 [3]: 899000 ± 179000 nM | IC50 [4]: 45600 ± 3460 nM | IC50 at 72 h [5]: > 200000 nM

activity against Glo-I (in words) [1]: ineffective
Structure (SMILES): Oc1ccc(CC2NCCc3cc(O)c(O)cc32)cc1 (stereo not shown) [Higenamine]

IC50 [15]: 20 nM
Structure (SMILES): COc1ccc2c(c1)c(CC(=O)O)c(C)n2C(=O)c1ccc(Cl)cc1 [Indomethacin]

activity against Glo-I (in words) [1]: inactive
Structure (SMILES): O=c1cccccc1O [Tropolon]

activity against Glo-I (in words) [1]: inactive
Structure (SMILES): O=C(/C=C/c1ccc(O)c(O)c1)O[C@@H]1C[C@@](OC(=O)/C=C/c2ccc(O)c(O)c2)(C(=O)O)C[C@@H](O)[C@@H]1O [cynarine]

More lines, now with the values behind:

Structure (SMILES): Cc1c(O)c(=O)ccn1C [3-Hydroxy-1,2-dimethyl-4(1h)-pyridone]
activity against Glo-I (in words) [1]: inactive

Structure (SMILES): [O-][Cl+2]([O-])O [Chloric acid]
activity against Glo-I (in words) [1]: inactive

Structure (SMILES): CC(=NO)C(C)=NO [Dimethylglyoxime]
activity against Glo-I (in words) [1]: inactive

Structure (SMILES): COc1cccc2c1C(=O)c1c(O)c3c(c(O)c1C2=O)C[C@@](O)(C(=O)CO)C[C@@H]3O[C@H]1C[C@H](N)[C@H](O)[C@H](C)O1 [Doxorubicin, reference compound]
IC50 [6]: 280 ± 140 nM | IC50 [7]: 920 ± 30 nM | IC50 [8]: 7170 ± 1070 nM | IC50 [2]: 5560 ± 80 nM | IC50 [3]: 4810 ± 210 nM | IC50 [9]: 130 ± 10 nM | IC50 [10]: 920 ± 30 nM | IC50 [11]: 6 nM | IC50 [4]: 20 nM | IC50 [12]: 10 nM | IC50 [13]: 650 ± 30 nM | IC50 [14]: 280 nM | IC50 at 72 h [5]: > 200000 nM

Structure (SMILES): CCN(CC)C(=O)/C(C#N)=C/c1cc(O)c(O)c([N+](=O)[O-])c1 [Entacapone, reference compound]
activity against Glo-I (in words) [1]: loss of activity

Structure (SMILES): Oc1cc(O)c2c(c1)O[C@H](c1cc(O)c(O)c(O)c1)[C@@H](O)C2 [Gallocatechin]
activity against Glo-I (in words) [1]: inactive

Structure (SMILES): O=C(CCCCCCC(=O)Nc1ccccc1)NO [SAHA, reference compound]
activity against Glo-I (in words) [1]: do not demonstrate efficacy against Glo-I

Structure (SMILES): COc1ccc(C[C@@H](C)[C@@H](C)Cc2ccc(OC)c(OC)c2)cc1OC [Terameprocol]
activity against Glo-I (in words) [1]: inactive

Structure (SMILES): CC(c1cc2ccccc2s1)N(O)C(N)=O (stereo not shown) [Zileuton, reference compound]
activity against Glo-I (in words) [1]: do not demonstrate efficacy against Glo-I

Structure (SMILES): CC(=O)Nc1nnc(S(N)(=O)=O)s1 [acetazolamide, reference compound]
activity against Glo-I (in words) [1]: did not exhibit any action against Glo-I
